# Several values for one entry are separate records, joined by “and”; a condition that tells them apart may be missing. Equal entries are not always repeated. Marks after values point to notes of the source that are not given here.
# Columns and labels:
# CYP3A4 [1] = experiment: Study 2
# CYP2D6 [2] = molecular target: T1, CYP2D6 (Homo sapiens, UniProt P10635); experiment: Study 2; conditions: for CL/F: mean ± SD; for Increase of exposure (AUC) by esmethadone: dextromethorphan + esmethadone 75 mg vs dextromethorphan alone; for Cmax: po
# T1 sequence (P10635 whole entry): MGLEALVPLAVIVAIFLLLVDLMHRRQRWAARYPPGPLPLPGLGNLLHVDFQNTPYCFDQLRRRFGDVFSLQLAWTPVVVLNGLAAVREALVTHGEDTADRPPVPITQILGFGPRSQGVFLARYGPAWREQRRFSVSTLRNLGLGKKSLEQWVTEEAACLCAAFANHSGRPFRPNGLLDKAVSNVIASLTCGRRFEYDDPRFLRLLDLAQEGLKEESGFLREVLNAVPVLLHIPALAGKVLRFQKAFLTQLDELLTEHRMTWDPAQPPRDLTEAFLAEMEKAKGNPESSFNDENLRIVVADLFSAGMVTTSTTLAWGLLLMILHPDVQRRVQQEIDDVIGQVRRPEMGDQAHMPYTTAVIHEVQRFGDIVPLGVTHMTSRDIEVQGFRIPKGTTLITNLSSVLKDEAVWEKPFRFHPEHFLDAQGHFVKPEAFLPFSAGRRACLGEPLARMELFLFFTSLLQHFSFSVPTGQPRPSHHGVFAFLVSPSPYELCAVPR
# CYP1A2 [3] = experiment: in vitro; assay type: in vitro ADME; conditions: human
# CYP2B6 [4] = experiment: in vitro; assay type: in vitro ADME; conditions: human
# CYP2C8 [5] = experiment: in vitro; assay type: in vitro ADME; conditions: human
# CYP2C9 [6] = experiment: in vitro; assay type: in vitro ADME; conditions: human
# CYP3A4 [7] = experiment: CYP3A4 induction in cryopreserved human hepatocytes; assay type: in vitro ADME; conditions: mean of three donors
# OCT1 = OCT1 (Homo sapiens, UniProt O15245); experiment: Uptake transporter assay in transfected HEK293 cells, OCT1 inhibition; assay type: in vitro ADME
# P-glycoprotein (P-gp) = P-glycoprotein (P-gp) (Homo sapiens, UniProt P08183); experiment: Efflux transporter assay in Caco-2 cells, P-gp inhibition; assay type: in vitro ADME
# Study 1 = assay type: in vivo, human; conditions: single 25-mg oral dose of [14C]-esmethadone
# CYP1A2 [8] = molecular target: CYP1A2 (Homo sapiens, UniProt P05177); conditions: HLM, esmethadone 0.2–200 μM
# CYP2B6 [9] = molecular target: T2, CYP2B6 (Homo sapiens, UniProt P20813); conditions: HLM, esmethadone 0.2–200 μM
# T2 sequence (P20813 whole entry): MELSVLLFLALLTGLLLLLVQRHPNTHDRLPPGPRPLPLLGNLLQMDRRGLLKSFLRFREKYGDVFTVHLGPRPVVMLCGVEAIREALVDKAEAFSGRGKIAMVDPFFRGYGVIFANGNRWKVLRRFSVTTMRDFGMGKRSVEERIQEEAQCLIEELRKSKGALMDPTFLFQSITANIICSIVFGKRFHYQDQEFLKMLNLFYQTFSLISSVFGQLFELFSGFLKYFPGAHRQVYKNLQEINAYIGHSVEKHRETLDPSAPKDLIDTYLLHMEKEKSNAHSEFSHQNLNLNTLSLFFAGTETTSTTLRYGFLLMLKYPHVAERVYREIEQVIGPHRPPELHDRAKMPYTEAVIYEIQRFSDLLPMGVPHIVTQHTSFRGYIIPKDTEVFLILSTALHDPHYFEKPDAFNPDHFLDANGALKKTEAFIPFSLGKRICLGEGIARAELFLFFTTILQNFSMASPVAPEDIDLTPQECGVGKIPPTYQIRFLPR
# CYP2C8 [10] = molecular target: T3, CYP2C8 (Homo sapiens, UniProt P10632); conditions: HLM, esmethadone 0.2–200 μM
# T3 sequence (P10632 whole entry): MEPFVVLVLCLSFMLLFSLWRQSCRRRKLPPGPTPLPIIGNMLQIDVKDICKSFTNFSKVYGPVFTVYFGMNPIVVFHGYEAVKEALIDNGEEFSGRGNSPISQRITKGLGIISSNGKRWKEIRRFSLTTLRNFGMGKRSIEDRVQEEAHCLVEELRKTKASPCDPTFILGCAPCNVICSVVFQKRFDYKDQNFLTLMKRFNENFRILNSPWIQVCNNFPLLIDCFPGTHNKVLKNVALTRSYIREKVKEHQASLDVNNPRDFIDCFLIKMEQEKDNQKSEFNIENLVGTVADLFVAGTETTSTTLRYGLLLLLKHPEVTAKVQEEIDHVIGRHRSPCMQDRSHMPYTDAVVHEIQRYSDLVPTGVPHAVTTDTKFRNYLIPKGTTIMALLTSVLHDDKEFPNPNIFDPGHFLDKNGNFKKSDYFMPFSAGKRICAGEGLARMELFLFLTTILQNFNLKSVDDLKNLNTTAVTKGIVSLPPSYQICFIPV
# CYP2C9 [11] = molecular target: T4, CYP2C9 (Homo sapiens, UniProt P11712); conditions: HLM, esmethadone 0.2–200 μM
# CYP2C19 [12] = molecular target: T5, CYP2C19 (Homo sapiens, UniProt P33261); conditions: HLM, esmethadone 0.2–200 μM
# T5 sequence (P33261 whole entry): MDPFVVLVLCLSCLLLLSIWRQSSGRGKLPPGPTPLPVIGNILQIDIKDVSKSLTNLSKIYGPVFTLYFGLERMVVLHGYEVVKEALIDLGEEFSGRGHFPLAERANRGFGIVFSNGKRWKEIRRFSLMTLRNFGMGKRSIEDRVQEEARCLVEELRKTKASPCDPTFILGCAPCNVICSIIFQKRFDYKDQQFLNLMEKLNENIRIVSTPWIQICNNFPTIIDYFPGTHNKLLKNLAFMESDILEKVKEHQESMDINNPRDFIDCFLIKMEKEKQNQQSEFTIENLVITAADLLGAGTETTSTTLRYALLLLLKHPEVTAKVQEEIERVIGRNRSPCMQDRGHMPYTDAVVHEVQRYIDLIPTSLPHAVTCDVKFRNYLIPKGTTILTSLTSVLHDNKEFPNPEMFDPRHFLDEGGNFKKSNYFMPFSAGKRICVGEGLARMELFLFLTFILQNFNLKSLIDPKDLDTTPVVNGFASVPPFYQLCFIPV
# [13] = cited from earlier work
# CYP2B6 [14] = molecular target: T2, CYP2B6; experiment: biochemical
# CYP2C8 [15] = molecular target: T3, CYP2C8; experiment: biochemical
# CYP2C9 [16] = molecular target: T4, CYP2C9; experiment: biochemical
# CYP2C19 [17] = molecular target: T5, CYP2C19; experiment: biochemical
# [18] = molecular target: human recombinant UGT2B15 (Homo sapiens, UniProt P54855); experiment: Inhibition of UGT2B15 in Supersomes
# human recombinant UGT2B15, sequence (P54855 24-530): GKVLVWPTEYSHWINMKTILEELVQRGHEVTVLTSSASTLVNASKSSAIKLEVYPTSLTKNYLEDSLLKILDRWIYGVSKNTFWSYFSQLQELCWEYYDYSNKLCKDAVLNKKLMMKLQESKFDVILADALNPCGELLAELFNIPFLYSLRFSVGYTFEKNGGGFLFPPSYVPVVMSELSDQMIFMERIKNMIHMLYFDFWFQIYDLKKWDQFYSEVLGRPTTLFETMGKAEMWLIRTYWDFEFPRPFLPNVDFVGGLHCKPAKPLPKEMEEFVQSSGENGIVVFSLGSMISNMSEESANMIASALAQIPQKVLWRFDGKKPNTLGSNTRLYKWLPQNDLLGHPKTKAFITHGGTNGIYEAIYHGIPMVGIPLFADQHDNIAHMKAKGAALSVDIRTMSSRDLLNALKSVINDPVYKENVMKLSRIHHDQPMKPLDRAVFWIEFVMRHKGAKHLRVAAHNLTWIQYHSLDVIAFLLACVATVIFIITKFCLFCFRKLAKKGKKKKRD
# [19] = Study 2 treatment-emergent adverse events; conditions: healthy participants, alone or in combination with dextromethorphan and midazolam
# UGT1A1 = UGT1A1 (Homo sapiens, UniProt P22309); experiment: Inhibition of UGT1A1 in human liver microsomes
# UGT1A1, sequence (P22309 26-533): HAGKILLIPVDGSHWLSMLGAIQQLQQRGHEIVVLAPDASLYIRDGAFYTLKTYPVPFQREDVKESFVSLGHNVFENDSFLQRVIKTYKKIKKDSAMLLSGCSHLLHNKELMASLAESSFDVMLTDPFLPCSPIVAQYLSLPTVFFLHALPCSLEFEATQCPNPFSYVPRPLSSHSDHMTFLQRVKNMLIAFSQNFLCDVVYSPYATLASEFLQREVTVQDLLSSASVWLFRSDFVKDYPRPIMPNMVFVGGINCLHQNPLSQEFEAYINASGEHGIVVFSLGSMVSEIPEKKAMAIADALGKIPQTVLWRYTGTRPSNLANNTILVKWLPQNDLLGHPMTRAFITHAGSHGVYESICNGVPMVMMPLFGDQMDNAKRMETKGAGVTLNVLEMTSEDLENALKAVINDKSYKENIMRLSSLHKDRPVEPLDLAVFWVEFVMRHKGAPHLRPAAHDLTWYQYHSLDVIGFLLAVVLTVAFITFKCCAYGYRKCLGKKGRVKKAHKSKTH
# UGT1A3 = UGT1A3 (Homo sapiens, UniProt P35503); experiment: Inhibition of UGT1A3 in human liver microsomes
# UGT1A3, sequence (P35503 29-534): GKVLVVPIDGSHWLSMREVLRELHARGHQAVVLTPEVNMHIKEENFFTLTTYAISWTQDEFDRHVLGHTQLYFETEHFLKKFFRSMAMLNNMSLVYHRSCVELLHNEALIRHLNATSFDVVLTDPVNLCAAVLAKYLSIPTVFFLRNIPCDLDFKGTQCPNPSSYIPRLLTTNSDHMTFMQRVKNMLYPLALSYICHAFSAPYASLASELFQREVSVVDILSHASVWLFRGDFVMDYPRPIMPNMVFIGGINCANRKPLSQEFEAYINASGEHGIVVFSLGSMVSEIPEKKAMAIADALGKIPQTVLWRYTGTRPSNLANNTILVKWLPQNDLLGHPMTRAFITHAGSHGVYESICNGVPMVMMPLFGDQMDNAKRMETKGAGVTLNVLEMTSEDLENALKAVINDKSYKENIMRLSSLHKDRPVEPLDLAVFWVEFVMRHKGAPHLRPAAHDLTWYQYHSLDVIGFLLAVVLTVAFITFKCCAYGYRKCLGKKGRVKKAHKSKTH
# UGT1A4 = UGT1A4 (Homo sapiens, UniProt P22310); experiment: Inhibition of UGT1A4 in human liver microsomes
# UGT1A6 = UGT1A6 (Homo sapiens, UniProt P19224); experiment: Inhibition of UGT1A6 in human liver microsomes; conditions: HLM
# UGT1A9 = UGT1A9 (Homo sapiens, UniProt O60656); experiment: Inhibition of UGT1A9 in human liver microsomes
# UGT1A9, sequence (O60656 26-530): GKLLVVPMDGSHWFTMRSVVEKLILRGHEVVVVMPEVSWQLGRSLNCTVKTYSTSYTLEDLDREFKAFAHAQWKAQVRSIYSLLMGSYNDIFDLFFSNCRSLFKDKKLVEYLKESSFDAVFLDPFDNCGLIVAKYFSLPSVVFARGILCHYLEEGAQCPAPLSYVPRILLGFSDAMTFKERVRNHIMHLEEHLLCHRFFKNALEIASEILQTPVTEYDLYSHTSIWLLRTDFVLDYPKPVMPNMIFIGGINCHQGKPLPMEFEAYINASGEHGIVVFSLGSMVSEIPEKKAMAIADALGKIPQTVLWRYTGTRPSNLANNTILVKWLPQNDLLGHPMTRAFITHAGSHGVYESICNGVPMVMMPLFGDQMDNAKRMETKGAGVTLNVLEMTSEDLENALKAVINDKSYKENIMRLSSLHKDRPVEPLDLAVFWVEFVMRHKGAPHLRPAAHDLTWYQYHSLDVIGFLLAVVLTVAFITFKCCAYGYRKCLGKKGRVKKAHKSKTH
# UGT2B7 = UGT2B7 (Homo sapiens, UniProt P16662); experiment: Inhibition of UGT2B7 in human liver microsomes
# UGT2B7, sequence (P16662 24-529): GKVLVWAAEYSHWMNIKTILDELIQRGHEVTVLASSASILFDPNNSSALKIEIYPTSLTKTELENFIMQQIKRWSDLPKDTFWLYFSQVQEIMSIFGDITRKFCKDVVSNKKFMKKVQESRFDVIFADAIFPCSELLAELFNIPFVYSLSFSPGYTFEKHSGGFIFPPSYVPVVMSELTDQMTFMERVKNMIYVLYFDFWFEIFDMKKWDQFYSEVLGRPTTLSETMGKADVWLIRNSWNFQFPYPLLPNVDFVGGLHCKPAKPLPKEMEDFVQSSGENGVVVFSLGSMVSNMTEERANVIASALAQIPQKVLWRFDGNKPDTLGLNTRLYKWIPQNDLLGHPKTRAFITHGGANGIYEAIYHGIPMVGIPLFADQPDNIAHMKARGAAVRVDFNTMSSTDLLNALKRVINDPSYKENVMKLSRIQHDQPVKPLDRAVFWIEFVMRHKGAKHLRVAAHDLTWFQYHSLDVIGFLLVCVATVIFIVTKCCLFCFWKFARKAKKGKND
# [20] = Microsomal protein binding by equilibrium dialysis; conditions: 5 h at 37 °C in HLM
# CYP2A6 = CYP2A6 (Homo sapiens, UniProt P11509); experiment: Direct inhibition of CYP2A6 in human liver microsomes
# CYP2A6, sequence (P11509 whole entry): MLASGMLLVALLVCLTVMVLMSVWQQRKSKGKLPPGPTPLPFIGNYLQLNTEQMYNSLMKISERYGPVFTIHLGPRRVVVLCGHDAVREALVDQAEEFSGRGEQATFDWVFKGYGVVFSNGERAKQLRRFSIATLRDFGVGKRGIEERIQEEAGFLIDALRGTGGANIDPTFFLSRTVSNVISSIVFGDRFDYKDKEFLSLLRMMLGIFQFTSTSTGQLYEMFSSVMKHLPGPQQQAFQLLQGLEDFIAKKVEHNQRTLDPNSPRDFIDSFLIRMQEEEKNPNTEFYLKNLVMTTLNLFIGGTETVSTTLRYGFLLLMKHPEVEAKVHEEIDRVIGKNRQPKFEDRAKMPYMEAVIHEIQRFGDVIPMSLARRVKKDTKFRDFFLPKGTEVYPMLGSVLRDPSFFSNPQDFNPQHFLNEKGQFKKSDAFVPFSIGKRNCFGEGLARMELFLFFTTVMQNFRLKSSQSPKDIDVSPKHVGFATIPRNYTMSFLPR
# Study 3 = conditions: human, in vivo, 25 mg
# CYP3A4 [21] = experiment: Study 3
# CYP2D6 [22] = molecular target: T1, CYP2D6; experiment: Direct inhibition of CYP2D6
# [23] = midazolam 2 mg + esmethadone 25 mg, mean ± SD
# [24] = midazolam 2 mg alone, mean ± SD
# [25] = midazolam + esmethadone vs midazolam alone
# [26] = mRNA levels EC50, donor 1, 72 h
# [27] = mRNA levels EC50, donor 2, 72 h
# [28] = mRNA levels EC50, donor 3, 72 h
# [29] = IC50,u (IC50 unbound), HLM, corrected for fraction unbound
molecule,measurement,setting,value
OCc1ncc2n1-c1ccc(Cl)cc1C(c1ccccc1F)=NC2 [1′-hydroxymidazolam],Cmax,"CYP3A4 [1]; midazolam 2 mg + esmethadone 25 mg (day 19, after repeated dosing), mean ± SD","13,100 ± 4930 pg/mL"
same,AUC0–inf,CYP3A4 [1]; [23],"42,700 ± 15100 h*pg/mL"
same,AUC0–t,CYP3A4 [1]; [23],"41,100 ± 14,500 h*pg/mL"
same,Tmax,"CYP3A4 [1]; midazolam 2 mg + esmethadone 25 mg, median (range)",0.925 (0.500–2.00)* h
same,AUC0–inf,CYP3A4 [1]; [24],"11,600 ± 8260 h*pg/mL"
same,AUC0–t,CYP3A4 [1]; [24],"10,700 ± 7360 h*pg/mL"
same,Tmax,"CYP3A4 [1]; midazolam 2 mg alone, median (range)",0.500 (0.500–0.750) h
same,Cmax,"CYP3A4 [1]; midazolam 2 mg oral alone (day 1), plasma, mean ± SD",5440 ± 3520 pg/mL
same,Increase of AUC by esmethadone,CYP3A4 [1]; [25],3.84 fold and 3.8 fold
same,Increase of Cmax by esmethadone,CYP3A4 [1]; [25],2.4 fold
COc1ccc2c(c1)[C@]13CCCC[C@@H]1[C@H](C2)N(C)CC3 [dextromethorphan],CL/F,CYP2D6 [2]; dextromethorphan 30 mg + esmethadone 75 mg,907 ± 715 L/h
same,CL/F,CYP2D6 [2]; dextromethorphan 30 mg alone,4560 ± 3280 L/h
same,Increase of exposure (AUC) by esmethadone,CYP2D6 [2],2.71 fold
same,AUC(0-inf),"CYP2D6 [2]; human, plasma, oral, 30 mg",31.2 ng·h/mL
same,AUC(0-t),"CYP2D6 [2]; human, plasma, oral, 30 mg",26.6 ng·h/mL
same,Tmax,"CYP2D6 [2]; human, plasma, oral, 30 mg",2.5 h
same,Vd/F,"CYP2D6 [2]; human, plasma, oral, 30 mg",39000 L
same,half-life,"CYP2D6 [2]; human, plasma, oral, 30 mg",7.15 ± 3.29 h
same,Cmax,"CYP2D6 [2]; human, plasma, 30 mg",2.2 ± 3.8 ng/mL
CN1CC[C@@]23CCCC[C@@H]2[C@@H]1Cc1ccc(O)cc13 [dextrorphan],Increase of exposure (AUC) by esmethadone,CYP2D6 [2],3.11 fold
same,AUC(0-inf),"CYP2D6 [2]; human, plasma, oral, 30 mg",27.2 ng·h/mL
same,AUC(0-t),"CYP2D6 [2]; human, plasma, oral, 30 mg",26.3 ng·h/mL
same,half-life,"CYP2D6 [2]; human, plasma, oral, 30 mg",5.64 ± 4.97 h
same,Cmax,"CYP2D6 [2]; human, plasma, 30 mg",4.9 ± 2.62 ng/mL
CCC(=O)C(C[C@H](C)N(C)C)(c1ccccc1)c1ccccc1 [esmethadone],EC50 at 72 h,CYP1A2 [3]; [26],25.7 µM
same,EC50 at 72 h,CYP1A2 [3]; [27],3.75 µM
same,EC50 at 72 h,CYP1A2 [3]; [28],26.3 µM
same,EC50 at 72 h,CYP2B6 [4]; [26],4.3 µM
same,EC50 at 72 h,CYP2B6 [4]; [27],5.36 µM
same,EC50 at 72 h,CYP2B6 [4]; [28],4.12 µM
same,EC50 at 72 h,CYP2C8 [5]; [26],2.85 µM
same,EC50 at 72 h,CYP2C8 [5]; [28],5.27 µM
same,EC50 at 72 h,CYP2C9 [6]; [26],1.05 µM
same,EC50 at 72 h,CYP2C9 [6]; [28],18.1 µM
same,Increase of CYP3A4 enzyme activity,CYP3A4 [7],5.2 ± 4.8 fold
same,Increase of CYP3A4 mRNA,CYP3A4 [7],21.4 ± 1.1 fold
same,IC50,OCT1,1.67 µM
same,IC50,P-glycoprotein (P-gp),9.28 µM
same,Fecal excretion of the component,Study 1,no fecal excretion
same,Percent of the total plasma radioactivity exposure through 24 h post-dose,Study 1,70.4%
same,Radioactivity excreted in urine,Study 1,53.9 % of the dose
same,Mean exposure (AUC0.5–24) in plasma,Study 1; healthy male subjects,1200 ng eq. h/g
same,Urinary excretion of the component,Study 1; mean across subjects,13 % of the dose
same,Conclusion (inhibitory activity),CYP1A2 [8],No
same,Conclusion (inhibitory activity),CYP2B6 [9],Yes
same,Conclusion (inhibitory activity),CYP2C8 [10],Yes
same,Conclusion (inhibitory activity),CYP2C9 [11],Yes
same,Conclusion (inhibitory activity),CYP2C19 [12],Yes
same,"Cmax,u, maximal unbound concentration in plasma at steady state",[13],587 nM
same,IC50,CYP2B6 [14],> 200 µM
same,IC50,CYP2C8 [15],> 200 µM
same,IC50,CYP2C9 [16],> 200 µM
same,IC50,"CYP2C19 [17]; IC50, HLM",174 µM
same,IC50,CYP2C19 [17]; [29],150 µM
same,IC50,[18],139 µM
same,Conclusion (inhibitory activity),[18]; Supersomes,Yes
same,Tolerability,[19],well tolerated
same,IC50,UGT1A1,> 200 µM
same,Conclusion (inhibitory activity),UGT1A1; HLM,Yes
same,IC50,UGT1A3,> 200 µM
same,Conclusion (inhibitory activity),UGT1A3; HLM,Yes
same,IC50,UGT1A4,> 200 µM
same,Conclusion (inhibitory activity),UGT1A4; HLM,Yes
same,Conclusion (inhibitory activity),UGT1A6,No
same,IC50,UGT1A9,> 200 µM
same,Conclusion (inhibitory activity),UGT1A9; HLM,Yes
same,IC50,UGT2B7,> 200 µM
same,Conclusion (inhibitory activity),UGT2B7; HLM,Yes
same,Stability under equilibrium dialysis testing conditions,[20],stable
same,IC50,CYP2A6,> 200 µM
same,Conclusion (inhibitory activity),"CYP2A6; HLM, esmethadone 0.2–200 μM",Yes
same,Tmax,Study 3,3 h
same,"Maximum observed concentration (text, concentration–time profiles)",CYP3A4 [21]; esmethadone 25 mg co-administered with cobicistat,130 ± 22.5 ng/mL
same,Increase of total exposure (AUC0–inf) by cobicistat,CYP3A4 [21]; esmethadone + cobicistat vs alone,32%
same,AUC(0-inf),"CYP3A4 [21]; human, in vivo, 25 mg",4430 ± 1370 ng·h/mL
same,AUC(0-t),"CYP3A4 [21]; human, in vivo, 25 mg",4100 ± 1210 ng·h/mL
same,Cmax,"CYP3A4 [21]; human, in vivo, po, 25 mg",131 ± 31.5 ng/mL
same,Effect of esmethadone on CYP3A4 activity,"CYP3A4 [1]; clinical, esmethadone 25 mg once daily",negligible effect
same,CYP2D6 inhibitor category (FDA guidelines),"CYP2D6 [2]; clinical, esmethadone 75 mg loading dose",moderate inhibitor of CYP2D6
same,Type of inhibition,CYP2D6 [22]; HLM,mixed (competitive and non-competitive) inhibition
same,Conclusion (inhibitory activity),"CYP2D6 [22]; HLM, esmethadone 0.2–200 μM",Yes
same,IC50,"CYP2D6 [22]; IC50, HLM, dextromethorphan O-demethylase",9.6 µM and 9.63 µM
same,IC50,CYP2D6 [22]; [29],8.28 µM
same,Ki,"CYP2D6 [22]; Ki, HLM, five substrate concentrations 2–50 μM",2.02 µM
same,Ki,"CYP2D6 [22]; Ki,u (unbound Ki), HLM, corrected for fraction unbound",1.74 µM
CCC(=O)C(C[C@@H](C)N(C)C)(c1ccccc1)c1ccccc1 [levomethadone],Time to maximum observed concentration (Tmax),[13]; oral methadone,3 h
CCC(=O)C(CC(C)N(C)C)(c1ccccc1)c1ccccc1 (centres unmarked) [methadone],Higher concentration associated with a single nucleotide polymorphism of P-gp,[13],32.9%
same,"Oral bioavailability, inter-subject range",[13],36–100%
same,Oral bioavailability,[13]; similar for the two enantiomers,70–80%
"Cc1ncc2n1-c1ccc(Cl)cc1C(c1ccccc1F)=NC2 [midazolam, reference compound]",AUC(0-inf),"CYP3A4 [1]; human, in vivo, 2 mg",26.8 ng·h/mL
same,AUC(0-t),"CYP3A4 [1]; human, in vivo, 2 mg",25.5 ng·h/mL
same,Tmax,"CYP3A4 [1]; human, in vivo, 2 mg",0.5 h
same,Vd/F,"CYP3A4 [1]; human, in vivo, 2 mg",571 ± 182 L
same,half-life,"CYP3A4 [1]; human, in vivo, 2 mg",5.12 ± 1.92 h
same,Cmax,"CYP3A4 [1]; human, in vivo, po, 2 mg",11500 pg/mL
same,CL/F,CYP3A4 [1]; [23],84.5 ± 27.5 L/h
same,CL/F,CYP3A4 [1]; [24],83.8 ± 27.9 L/h
oxy-esmethadone glucuronide,Percent of the total plasma radioactivity exposure through 24 h post-dose,Study 1,0.473%

# — PMC11035515 (Drugs in R&D, 2023)
